Values belong to the molecule of their own block, whether it stands above or below them.
Columns and labels:
NF-κB = NF-κB luciferase reporter assay in RAW 264.7 macrophages; format: cell-based; conditions: Mus musculus, RAW264.7; RAW 264.7 reporter cells, 2 hour pretreatment, 200 ng/ml LPS for 3 hours; read-out: NF-kB inhibitory activity IC50
Method: RAW 264.7 cells stably expressing a 3× NFkB response elemement-drive luciferase reporter were seeded into 96 well plates in sera-free medium (Optimem) 18 hours prior to compound application. Compounds of the invention were prepared by first making 100 mM stock solutions in EtOH. Stock solutions were then diluted 1:100 in low LPS FBS (Gemini BenchMark 100-106), mixed vigorously and allowed to incubate at room temperature for 30 minutes. 1:2 serial dilutions were then made in FBS supplemented with 1% EtOH, mixed vigorously, and again allowed to incubate at room temperature for 30 minutes before adding to RAW 264.7 reporter cells (final concentrations: 10% FBS, 100 uM highest compound dilution, 0.1% EtOH) for a 2 hour pretreatment prior to stimulation with LPS. Cells were then stimulated with 200 ng/ml LPS or vehicle control for 3 hours in the presence of the compounds of the invention. A set of six vehicles was left unstimulated with LPS in order to measure the assay floor. AlamarBlue viability dye (Invitrogen) was added to cells simultaneously with the delivery of LPS (final AlamarBlue concentration of 10%).
After the 3 h incubation period with LPS, cell viability was measured by reading fluorescence (excitation 550 nm, emission 595 nm) with a Perkin Elmer Victor V plate reader. Then cell media was aspirated from each well. Luciferase signal was then developed by addition of the Britelite Plus reagent (Perkin Elmer). Luciferase activity was measured with the Perkin Elmer Victor V plate reader. NF-κB activity was expressed as a percent of the vehicle control wells (stimulated with LPS). Compounds were tested at 6 dose point titrations in triplicate to determine IC50 values. Table 1 summarizes the […] values for a number of bis-fatty acid conjugates in this NF-κB luciferase reporter assay.

[1] = test system: ApoB secretion in HepG2 cells; assay: ApoB secretion in HepG2 cells (ELISA); format: cell-based; conditions: Homo sapiens, incubated for 16 hours, FIG. 1, read-out: IC50 (concentration at which 50% of ApoB secretion is inhibited)
Method: HepG2 cells (ATCC) are seeded at 25,000 cells per well in collagen-coated 96-well plates in growth media (DMEM with 10% fetal bovine serum). The following day, bis-fatty acid conjugates are complexed to lipoprotein-deficient fetal bovine serum at the appropriate concentration. Growth media is then removed from and the HepG2 cells are washed once with PBS. The lipoprotein-deficient FBS with the complexed bis-fatty acid conjugates is added to DMEM for a final 10% concentration. Each concentration of bis-fatty acid is tested in triplicate. Cells are incubated for 16 hours with the bis-fatty acid. Alamar Blue® (Invitrogen) is then added to the media to determine cell viability per the manufacturer's instructions. Two hours after Alamar Blue® addition, the media is removed and placed in a black 96-well plate. The plate is then read at 550 nm/590 nm to determine cell viability. The media is then used to determine ApoB concentrations using ELISA kits (Mabtech AB). Percent inhibition of ApoB secretion is determined by normalizing data to vehicle treated wells. For a given compound, an IC50 (concentration at which 50% of ApoB secretion is inhibited) can also be determined by using a 4 parameter-fit inhibition curve model (Graph Pad Prism®).

SMILES: CC/C=C\C/C=C\C/C=C\C/C=C\C/C=C\C/C=C\CCC(=O)O [DHA, docosahexaenoic acid, reference compound]
IC50 (NF-κB): > 200 µM

SMILES: CC/C=C\C/C=C\C/C=C\C/C=C\C/C=C\CCCC(=O)O [EPA, eicosapentaenoic acid, reference compound]
IC50 (NF-κB): > 200 µM

SMILES: CC/C=C\C/C=C\C/C=C\C/C=C\C/C=C\C/C=C\CCC(=O)NCCNC(=O)CC/C=C\C/C=C\C/C=C\C/C=C\C/C=C\C/C=C\CC [I-1, (4Z,7Z,10Z,13Z,16Z,19Z)-docosa-4,7,10,13,16,19-hexaenoic acid [2-((4Z,7Z,10Z,13Z,16Z,19Z)-docosa-4,7,10,13,16,19-hexaenoylamino)-ethyl]-amide]
IC50 (NF-κB): < 200 µM

SMILES: CC/C=C\C/C=C\C/C=C\C/C=C\C/C=C\C/C=C\CCC(=O)NCCN(C)CCNC(=O)CC/C=C\C/C=C\C/C=C\C/C=C\C/C=C\C/C=C\CC [I-2, (4Z,7Z,10Z,13Z,16Z,19Z)-docosa-4,7,10,13,16,19-hexaenoic acid (2-{[2-((4Z,7Z,10Z,13Z,16Z,19Z)-docosa-4,7,10,13,16,19-hexaenoylamino)-ethyl]-methyl-amino}-ethyl)-amide]
IC50 (NF-κB): < 50 µM

SMILES: CC/C=C\C/C=C\C/C=C\C/C=C\C/C=C\C/C=C\CCC(=O)NCCNC(=O)CCC/C=C\C/C=C\C/C=C\C/C=C\C/C=C\CC [I-37, (4Z,7Z,10Z,13Z,16Z,19Z)-docosa-4,7,10,13,16,19-hexaenoic acid [2-((5Z,8Z,11Z,14Z,17Z)-icosa-5,8,11,14,17-pentaenoylamino)-ethyl]-amide]
IC50 (NF-κB): < 200 µM

SMILES: CC/C=C\C/C=C\C/C=C\C/C=C\C/C=C\C/C=C\CCC(=O)NCCN(C)CCNC(=O)CCC/C=C\C/C=C\C/C=C\C/C=C\C/C=C\CC [I-39, (4Z,7Z,10Z,13Z,16Z,19Z)-docosa-4,7,10,13,16,19-hexaenoic acid (2-{[2((5Z,8Z,11Z,14Z,17Z)-icosa-5,8,11,14,17-pentaenoylamino)-ethyl]-methyl-amino}-ethyl)-amide]
IC50 (NF-κB): < 50 µM

SMILES: CC/C=C\C/C=C\C/C=C\C/C=C\C/C=C\C/C=C\CCC(=O)N[C@@H](CCCCNC(=O)CCC/C=C\C/C=C\C/C=C\C/C=C\C/C=C\CC)C(=O)O [I-45, (S)-2-((4Z,7Z,10Z,13Z,16Z,19Z)-docosa-4,7,10,13,16,19-hexaenoylamino)-6-((5Z,8Z,11Z,14Z,17Z)-icosa-5,8,11,14,17-pentaenoylamino)-hexanoic acid]
IC50 (NF-κB): < 50 µM

The remaining lines, values ahead:

IC50 (NF-κB): < 50 µM
SMILES: CC/C=C\C/C=C\C/C=C\C/C=C\C/C=C\C/C=C\CCC(=O)N[C@H](C(=O)OC)[C@@H](C)OC(=O)[C@H](C)NC(=O)CCC/C=C\C/C=C\C/C=C\C/C=C\C/C=C\CC [I-65, (2S,3R)-methyl 2-((4Z,7Z,10Z,13Z,16Z,19Z)-docosa-4,7,10,13,16,19-hexaenamido)-3-((S)-2-((5Z,8Z,11Z,14Z,17Z)-icosa-5,8,11,14,17-pentaenamido)propanoyloxy)butanoate]

IC50 [1]: 9.5 µM
IC50 (NF-κB): < 50 µM
SMILES: CC/C=C\C/C=C\C/C=C\C/C=C\C/C=C\C/C=C\CCC(=O)N[C@@H](C)C(=O)O[C@H](C)[C@H](NC(=O)CCC/C=C\C/C=C\C/C=C\C/C=C\C/C=C\CC)C(=O)OC [I-66, (2S,3R)-methyl 3-((S)-2-((4Z,7Z,10Z,13Z,16Z,19Z)-docosa-4,7,10,13,16,19-hexaenamido)propanoyloxy)-2-((5Z,8Z,11Z,14Z,17Z)-icosa-5,8,11,14,17-pentaenamido)butanoate]

IC50 (NF-κB): < 200 µM
SMILES: CC/C=C\C/C=C\C/C=C\C/C=C\C/C=C\C/C=C\CCC(=O)N1CCN(C(=O)CCC/C=C\C/C=C\C/C=C\C/C=C\C/C=C\CC)CC1 [I-67, (4Z,7Z,10Z,13Z,16Z,19Z)-1-[4-((5Z,8Z,11Z,14Z,17Z)-icosa-5,8,11,14,17-pentaenoyl)-piperazin-1-yl]-docosa-4,7,10,13,16,19-hexaen-1-one]

IC50 (NF-κB): < 200 µM
SMILES: CC/C=C\C/C=C\C/C=C\C/C=C\C/C=C\CCCC(=O)N[C@@H](CCCCNC(=O)CCCC[C@@H]1CCSS1)C(=O)O [I-107, (S)-6-((R)-5-[1,2]dithiolan-3-yl-pentanoylamino)-2-((5Z,8Z,11Z,14Z,17Z)-icosa-5,8,11,14,17-pentaenoylamino)-hexanoic acid]

— patent publication US20130190327A1, “BIS-FATTY ACID CONJUGATES AND THEIR USES” (CATABASIS PHARMACEUTICALS INC, priority 2010, published 2013)
